# Patent US20260216112A1, “ACETYLCYSTEINE-STABILIZED GOLD NANOCLUSTERS FOR ACUTE KIDNEY INJURY, AND PREPARATION METHOD AND APPLICATION THEREOF” (priority 2021, published 2026)
# Legend:
# [1] = test system: glycerol-induced acute renal failure mice; assay: glycerol-induced acute renal failure mice, serum creatinine and blood urea nitrogen; type: in vivo; settings: 4 mg/kg injected 2 hours after glycerol, serum at 24 hours, versus phosphate buffer
# Description: All experimental operations were performed in accordance with the animal use and care system approved by the Clinical Center Animal Care and Use Committee. Female athymic mice (six weeks, 20-25 g) were injected with 8 mL/kg 50% glycerol solution intramuscularly into the hind legs to establish a mice model of acute renal failure. After 2 hours, the small molecule drug acetylcysteine or Au NCs-NAC was injected.
# Mice were randomly divided into 5 groups: (1) healthy mice injected with phosphate buffer; (2) healthy mice injected with Au NCs-NAC; (3) glycerol-induced acute renal failure mice injected with phosphate buffer; (4) glycerol-induced acute renal failure mice injected with Au NCs-NAC; (5) glycerol-induced acute renal failure mice injected with acetylcysteine in the same dose of Au NCs-NAC. Healthy mice and mice with glycerol-induced acute renal failure were euthanized 24 hours later. The blood of the mice was centrifuged to obtain serum, and the creatinine and blood urea nitrogen contents were measured. The phosphate buffer used for injection was 100 μL, the injection dose of Au NCs-NAC was 4 mg/kg, and the injection dose of acetylcysteine was 4 mg/kg.
# [2] = superoxide anion removal, SOD assay kit; type: biochemical; settings: concentration of 100 μg/mL; FIG. 5
# Description: The efficiency of Au NCs-NAC in removing superoxide anions at different concentrations ([…]) was determined using the SOD assay kit (Sigma-Aldrich, USA). The test was conducted according to the instructions provided by the manufacture.
# [3] = ABTS free radical cation discoloration method; type: biochemical; settings: concentration of […] (so in the source); absorbance at 734 nm; FIG. 6
# Description: The test for eliminating ABTS (2,2′-azino-bis(3-ethylbenzothiazoline-6-sulfonic acid)) free radicals by Au NCs-NAC.
# The free radicals eliminating ability of Au NCs-NAC was tested using the ABTS free radical cation discoloration method. ABTS (7 mM) was dissolved in water, and 2.45 mM potassium persulfate was added to react for 12 hours to produce ABTS free radical cations (⋅ABTS+). Then, the absorbance values of the pure ⋅ABTS+solution (AB) and the mixed solution of different concentrations (12.5-100 μg/mL) of Au NCs-NAC and ⋅ABTS+ were measured at 734 nm. The formula for calculating ABTS eliminating efficiency is [(AB AP)/AB]*100. All measurements were performed in triplicate.
# [4] = hydroxyl radical antioxidant capacity (HORAC) kit; type: biochemical; settings: concentration of 100 μg/mL; FIG. 4
# TNF-α = assay: in vitro anti-inflammatory study, TNF-α ELISA; type: cell-based; settings: LPS 400 ng/ml stimulation, RAW264.7 macrophage supernatant, FIG. 9
# Excerpt: (§1) Embodiment 3: Au NCs-NAC cytotoxicity and protection of kidney cells by eliminating various reactive oxygen species/reactive nitrogen species, and the standard MTT method was used to evaluate the effect of Au NCs-NAC on the survival rate of 293T renal embryonic cells. Furthermore, ELISA (enzyme-linked immunosorbent assay) kits for TNF-α and IL-6 are adopted to evaluate the levels of inflammatory factors in the cells.
# (§2) For in vitro anti-inflammatory studies, both macrophages and 293T renal embryonic cells were seeded into 96-well plates. Then, 293T renal embryonic cells were treated with 400 ng/ml lipopolysaccharide (LPS) for 1 h. Then, the supernatant of 293T renal embryonic cell culture was transferred to a 96-well plate to culture RAW264.7 macrophages overnight. Finally, the TNF-α/IL-6 ELISA kit was used to detect the concentrations of TNF-α and IL-6 in the RAW264.7 macrophage supernatant.
# IL-6 = assay: in vitro anti-inflammatory study, IL-6 ELISA; type: cell-based; settings: LPS 400 ng/ml stimulation, RAW264.7 macrophage supernatant, FIG. 10
# Excerpt: as §1, §2
compound,measurement,setting,value
CC(=O)N[C@@H](CS)C(=O)O [acetylcysteine],serum blood urea nitrogen level,[1]; FIG. 11,cannot effectively reduce
same,serum creatinine level,[1]; FIG. 12,cannot effectively reduce
same,superoxide anions eliminated,[2],6%
same,⋅ABTS+ eliminated (ABTS eliminating efficiency),[3],68.9%
same,hydroxyl radicals eliminated,[4],47.2%
same,production of inflammatory factor TNF-α,TNF-α,not able to achieve the same
same,production of inflammatory factor IL-6,IL-6,not able to achieve the same
